One data set addresses T1, CDK6 (Homo sapiens, UniProt Q00534).
T1 construct: Reaction Biology Corp., Malvern, PA (contract assay service)
The data set can be described thus: Cyclin dependent kinase inhibition (Reaction Biology Corp.). In kind it is biochemical. The method, then: (§1) PI3K-alpha, PI3K-beta, PI3K-gamma, and PI3K-delta inhibition activity was determined by Thermo Fisher Scientific-Biosciences Life Sciences Solutions, Madison, WI The bromodomain protein inhibition (binding domain 1 and 2 of BRD4) was determined by Reaction Biology Corp., Malvern, PA The cyclin dependent kinase inhibition on proteins such as CDK2, CDK4, CDK6, and CDK9 was determined by Reaction Biology Corp., Malvern, PA.
(§2) The compounds of the invention were characterized by their ability to inhibit the target proteins using third party vendors offering such services. PI3K-alpha, PI3K-gamma, and PI3K-delta inhibition activity was determined by Thermo Fisher Scientific-Biosciences Life Sciences Solutions, Madison, WI. […] NI=no inhibition detected up to 50 μM or IC50 not reached at 50 μM. ND=not done.

The target of the next data set is T2, CDK4 (Homo sapiens, UniProt P11802).
T2 construct: Reaction Biology Corp., Malvern, PA (contract assay service)
T2 sequence (P11802 whole entry): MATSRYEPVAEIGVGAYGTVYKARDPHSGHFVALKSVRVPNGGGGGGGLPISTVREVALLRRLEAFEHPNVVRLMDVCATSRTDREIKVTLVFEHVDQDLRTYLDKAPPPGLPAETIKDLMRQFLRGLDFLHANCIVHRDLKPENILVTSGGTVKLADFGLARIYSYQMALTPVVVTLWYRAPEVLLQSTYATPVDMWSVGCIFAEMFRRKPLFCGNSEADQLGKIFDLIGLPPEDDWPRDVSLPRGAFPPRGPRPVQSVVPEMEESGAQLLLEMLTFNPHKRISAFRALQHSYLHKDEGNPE
T2 sequence (P24385 whole entry partner): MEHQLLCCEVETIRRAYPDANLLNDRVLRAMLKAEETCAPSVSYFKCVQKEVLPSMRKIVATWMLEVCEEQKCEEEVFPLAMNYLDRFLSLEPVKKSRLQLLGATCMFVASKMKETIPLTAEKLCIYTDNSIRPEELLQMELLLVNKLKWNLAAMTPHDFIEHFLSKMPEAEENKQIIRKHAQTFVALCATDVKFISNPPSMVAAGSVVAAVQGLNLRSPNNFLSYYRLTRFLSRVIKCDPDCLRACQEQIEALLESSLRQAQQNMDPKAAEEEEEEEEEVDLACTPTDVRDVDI
The data set is described as above. In kind it is biochemical. The method, then:
as §1, §2

The next data set concerns the target DNA-PK (Homo sapiens, UniProt P78527). The data set can be described thus: DNA-PK inhibition. In kind it is biochemical.
The test system of another data set is CHLA-255. The data set can be described thus: Neuroblastoma cell viability, Alamar Blue. As to conditions: Homo sapiens, 24 hours incubation. In kind it is cell-based. As to the method:
(§3) IC50 for each cell line was determined using Graphpad Prism software module.
A general note: Alamar Blue is a resazurin reagent that responds to reducing activity.

A further data set concerns SMS-KNCR. The data set can be described thus: Neuroblastoma cell viability, Alamar Blue. Format: cell-based. As to conditions: Homo sapiens, 24 hours incubation. The method, then: as §3
The next data set relates to CHLA-136. The data set can be described thus: Neuroblastoma cell viability, Alamar Blue. In kind it is cell-based. Conditions: Homo sapiens, 24 hours incubation. The method, then:
as §3

The next data set has as its system Huh7 2H cell line. The data set can be described thus: Huh7 2H cell viability. Format: cell-based. As to conditions: Homo sapiens, Huh-7, 2 h. As to the method: (§4) Cells were seeded into 96-well plate at 1×10^4 cell per well in complete medium+10% FCS and incubated for 24 hours prior to the addition of compounds at concentrations ranging from 50 μM to 50 nM. Cell viability was quantitated 24 hours after the addition of compounds using AlamarBlue® viable cell detection reagent. IC50 curves were determined using Graphpad Prism software.
The procedures of example 6 were followed except using the Huh7 2H cell line.

In a further data set the test system is Mino. The data set can be described thus: Mantle cell lymphoma cell viability, AlamarBlue. In kind it is cell-based. As to the method:
(§5) Mantle cell lymphoma cell lines Granta, Mino and Jeko-1 were seeded at a density of 2500 cells/0.1 mL per well in a 96-well plate. Compounds 1 or Palbociclib were added post-plating at 50 μM-50 nM concentrations for 48 hours followed by addition of AlamarBlue® and incubation of plates at 37° C. in 5% CO2 for 6 hours. Fluorescence signals were read as emission at 590 nm after excitation at 560 nm. IC50 for each cell line was determined using Graphpad Prism software module.

A further data set has as its system Granta. The data set can be described thus: Mantle cell lymphoma cell viability, AlamarBlue. In kind it is cell-based. As to the method:
as §5

In the next data set the test system is Jeko-1. The data set can be described thus: Mantle cell lymphoma cell viability, AlamarBlue. In kind it is cell-based. As to the method: as §5
Data set [1] in a line: Oral pharmacokinetic (PK) study (Quintara Discovery). Format: in vivo. As to conditions: plasma, oral gavage 30 mg/kg. The text has this: The in vivo anticancer activity displaying drug like properties also bears this out as shown in FIG. 9 and the corresponding example.
Data set [2] has as its system Huh7 cells. The data set can be described thus: Western blot signaling in IGF-1 stimulated Huh7 cells (p-AKT, pRB). In kind it is cell-based. Conditions: Huh7, serum starved, IGF-1 stimulation 30 min. The method, then:
The hepatocellular carcinoma cell line, Huh7 was serum starved overnight in serum free medium. Cells were seeded into a 96 well tissue culture plate at 1×10^4 cells/well and pulsed with IGF-1 stimulation for 30 min at 37° C. at which time lysates were generated for SDS PAGE analysis. Western blot analysis was performed for p-AKT, AKT, pRB, RB and beta actin as loading control.

The target in the next data set is T3, CDK9 (Homo sapiens, UniProt P50750).
T3 construct: Reaction Biology Corp., Malvern, PA (contract assay service)
T3 sequence (P50750 whole entry): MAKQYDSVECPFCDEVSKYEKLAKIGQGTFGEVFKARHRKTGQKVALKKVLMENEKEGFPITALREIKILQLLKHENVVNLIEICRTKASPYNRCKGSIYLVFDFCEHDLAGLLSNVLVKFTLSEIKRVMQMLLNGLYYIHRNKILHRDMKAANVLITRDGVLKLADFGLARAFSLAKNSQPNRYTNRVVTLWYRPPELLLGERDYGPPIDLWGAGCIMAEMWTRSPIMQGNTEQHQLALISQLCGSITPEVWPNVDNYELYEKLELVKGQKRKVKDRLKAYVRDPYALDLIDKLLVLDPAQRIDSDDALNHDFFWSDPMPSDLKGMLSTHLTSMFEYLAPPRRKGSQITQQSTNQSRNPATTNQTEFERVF
T3 sequence (O60563 whole entry partner): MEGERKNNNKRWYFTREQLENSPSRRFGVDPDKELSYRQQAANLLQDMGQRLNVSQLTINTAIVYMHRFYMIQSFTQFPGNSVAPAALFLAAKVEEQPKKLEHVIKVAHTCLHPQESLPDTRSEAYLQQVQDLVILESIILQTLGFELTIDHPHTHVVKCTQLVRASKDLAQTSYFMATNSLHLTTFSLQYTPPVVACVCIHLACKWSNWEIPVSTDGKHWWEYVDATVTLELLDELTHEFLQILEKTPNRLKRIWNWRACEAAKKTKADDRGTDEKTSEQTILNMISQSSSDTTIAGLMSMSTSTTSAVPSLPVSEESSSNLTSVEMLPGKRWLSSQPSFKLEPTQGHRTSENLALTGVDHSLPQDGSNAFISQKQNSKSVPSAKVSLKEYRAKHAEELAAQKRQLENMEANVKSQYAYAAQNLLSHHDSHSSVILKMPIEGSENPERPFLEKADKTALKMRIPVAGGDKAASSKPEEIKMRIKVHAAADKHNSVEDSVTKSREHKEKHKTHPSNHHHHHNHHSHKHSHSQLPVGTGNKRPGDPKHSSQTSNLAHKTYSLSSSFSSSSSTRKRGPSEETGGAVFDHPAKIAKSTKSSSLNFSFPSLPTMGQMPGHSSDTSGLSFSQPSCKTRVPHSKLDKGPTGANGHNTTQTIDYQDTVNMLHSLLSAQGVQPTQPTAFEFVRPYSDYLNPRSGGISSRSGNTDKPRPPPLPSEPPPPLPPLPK
The data set can be described thus: Cyclin dependent kinase inhibition (Reaction Biology Corp.). In kind it is biochemical. The method, then:
as §1

For the next data set, the target named is T4, CDK2 (Homo sapiens, UniProt P24941).
T4 construct: Reaction Biology Corp., Malvern, PA (contract assay service)
Described as above. Format: biochemical. The method, then: as §1

In data set [3] the test system is Hepatocellular carcinoma, Neuroblastoma, and Mantle Cell lymphoma cell lines. The data set can be described thus: Percent viability versus concentration, comparison with Palbociclib and combination. In kind it is cell-based. As to the method:
The percent viability versus concentration experimental procedures for hepatocellular carcinoma cell lines, neuroblastoma cell lines, and Mantle cell lymphoma cell lines was performed as described in example 6, example 4, and example 5, respectively.

The target of a further data set is T5, PI3K-gamma (Homo sapiens, UniProt P48736).
T5 construct: Thermo Fisher Scientific-Biosciences Life Sciences Solutions, Madison, WI (contract assay service)
T5 sequence (P48736 whole entry): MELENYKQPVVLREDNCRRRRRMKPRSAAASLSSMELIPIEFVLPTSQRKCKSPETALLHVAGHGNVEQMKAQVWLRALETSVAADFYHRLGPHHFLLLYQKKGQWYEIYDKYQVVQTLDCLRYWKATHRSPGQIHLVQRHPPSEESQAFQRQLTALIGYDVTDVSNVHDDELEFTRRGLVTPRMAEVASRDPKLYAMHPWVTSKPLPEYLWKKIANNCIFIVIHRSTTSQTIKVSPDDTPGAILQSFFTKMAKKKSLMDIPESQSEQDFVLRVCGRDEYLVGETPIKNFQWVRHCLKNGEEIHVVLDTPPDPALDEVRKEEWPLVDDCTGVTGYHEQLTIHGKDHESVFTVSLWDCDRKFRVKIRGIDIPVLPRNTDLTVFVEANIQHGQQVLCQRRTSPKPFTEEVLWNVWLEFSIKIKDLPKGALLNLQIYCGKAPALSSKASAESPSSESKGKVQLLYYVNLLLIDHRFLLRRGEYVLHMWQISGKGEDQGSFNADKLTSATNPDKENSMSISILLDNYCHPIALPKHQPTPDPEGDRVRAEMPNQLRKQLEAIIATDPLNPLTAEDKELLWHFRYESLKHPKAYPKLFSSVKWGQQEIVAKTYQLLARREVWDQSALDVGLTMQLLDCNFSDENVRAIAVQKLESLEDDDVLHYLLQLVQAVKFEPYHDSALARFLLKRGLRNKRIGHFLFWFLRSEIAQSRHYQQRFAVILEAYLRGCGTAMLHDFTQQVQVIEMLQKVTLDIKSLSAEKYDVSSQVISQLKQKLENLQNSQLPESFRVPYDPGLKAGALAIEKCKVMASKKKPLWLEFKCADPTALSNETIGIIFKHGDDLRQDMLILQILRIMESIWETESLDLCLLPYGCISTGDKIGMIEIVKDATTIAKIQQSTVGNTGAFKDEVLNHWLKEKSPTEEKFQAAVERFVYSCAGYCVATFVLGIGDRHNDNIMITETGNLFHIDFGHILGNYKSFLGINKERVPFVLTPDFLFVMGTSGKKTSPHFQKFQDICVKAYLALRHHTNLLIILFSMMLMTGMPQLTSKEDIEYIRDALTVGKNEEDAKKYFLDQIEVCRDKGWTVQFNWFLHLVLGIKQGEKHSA
The data set can be described thus: PI3K inhibition (Thermo Fisher Scientific). Format: biochemical. As to conditions: 10-point curve, grouped by potency; read-out: IC50 P13K γ. As to the method: as §1, §2

The target of another data set is T6, PI3K-delta (Homo sapiens, UniProt O00329).
T6 construct: Thermo Fisher Scientific-Biosciences Life Sciences Solutions, Madison, WI (contract assay service)
T6 sequence (O00329 whole entry): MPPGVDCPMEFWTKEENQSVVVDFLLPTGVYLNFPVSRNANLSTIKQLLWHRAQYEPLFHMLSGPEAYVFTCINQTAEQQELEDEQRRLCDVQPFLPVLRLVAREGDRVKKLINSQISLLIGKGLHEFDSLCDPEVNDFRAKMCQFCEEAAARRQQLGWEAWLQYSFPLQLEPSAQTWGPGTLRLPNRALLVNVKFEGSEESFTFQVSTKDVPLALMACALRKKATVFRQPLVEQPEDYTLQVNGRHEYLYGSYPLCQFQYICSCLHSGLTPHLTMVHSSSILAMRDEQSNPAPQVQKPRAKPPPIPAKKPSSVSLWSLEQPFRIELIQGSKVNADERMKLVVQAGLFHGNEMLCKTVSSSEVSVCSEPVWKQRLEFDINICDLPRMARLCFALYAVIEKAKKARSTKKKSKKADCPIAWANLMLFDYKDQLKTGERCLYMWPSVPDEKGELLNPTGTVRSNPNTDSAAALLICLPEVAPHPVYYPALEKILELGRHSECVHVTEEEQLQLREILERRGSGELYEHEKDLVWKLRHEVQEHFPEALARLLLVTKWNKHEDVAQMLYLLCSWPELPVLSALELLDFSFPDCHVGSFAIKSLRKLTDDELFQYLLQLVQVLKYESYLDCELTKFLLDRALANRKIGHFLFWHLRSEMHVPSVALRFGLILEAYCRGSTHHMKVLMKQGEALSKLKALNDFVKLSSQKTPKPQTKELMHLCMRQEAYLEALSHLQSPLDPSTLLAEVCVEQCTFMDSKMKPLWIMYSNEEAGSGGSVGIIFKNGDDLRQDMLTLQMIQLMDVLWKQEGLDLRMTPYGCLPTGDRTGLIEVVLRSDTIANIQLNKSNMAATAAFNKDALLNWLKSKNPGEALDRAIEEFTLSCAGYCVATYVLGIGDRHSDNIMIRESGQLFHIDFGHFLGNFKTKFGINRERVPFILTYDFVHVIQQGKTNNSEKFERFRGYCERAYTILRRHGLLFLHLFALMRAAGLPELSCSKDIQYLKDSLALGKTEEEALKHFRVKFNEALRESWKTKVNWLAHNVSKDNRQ
T6 sequence (P27986 whole entry partner): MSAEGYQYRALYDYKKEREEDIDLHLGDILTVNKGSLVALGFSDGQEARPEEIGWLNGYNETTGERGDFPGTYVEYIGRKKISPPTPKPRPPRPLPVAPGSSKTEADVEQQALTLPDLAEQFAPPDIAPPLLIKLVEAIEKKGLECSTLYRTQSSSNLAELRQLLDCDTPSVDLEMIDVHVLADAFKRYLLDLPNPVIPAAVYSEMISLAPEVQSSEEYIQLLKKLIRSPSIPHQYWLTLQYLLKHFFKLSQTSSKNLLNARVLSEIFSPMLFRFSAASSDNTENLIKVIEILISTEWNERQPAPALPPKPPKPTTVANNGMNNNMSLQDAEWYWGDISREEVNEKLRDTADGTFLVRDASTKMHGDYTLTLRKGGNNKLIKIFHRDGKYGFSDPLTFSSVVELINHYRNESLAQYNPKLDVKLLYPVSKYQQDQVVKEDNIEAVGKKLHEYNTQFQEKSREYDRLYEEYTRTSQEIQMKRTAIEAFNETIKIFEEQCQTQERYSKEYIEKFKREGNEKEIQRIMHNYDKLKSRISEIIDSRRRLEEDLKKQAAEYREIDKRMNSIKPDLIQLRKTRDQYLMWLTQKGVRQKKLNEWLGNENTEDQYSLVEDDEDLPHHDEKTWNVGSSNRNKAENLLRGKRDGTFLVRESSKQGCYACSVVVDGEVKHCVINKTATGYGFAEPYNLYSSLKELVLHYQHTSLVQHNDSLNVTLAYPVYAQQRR
The data set can be described thus: PI3K inhibition (Thermo Fisher Scientific). In kind it is biochemical. As to conditions: 10-point curve, grouped by potency; read-out: IC50 P13K δ. As to the method: as §1, §2

The test system of a further data set is Mino and Granta cells. The data set can be described thus: Western blot PI3K and CDK4/cyclin D/Rb signaling in mantle cell lymphoma cells. In kind it is cell-based. Conditions: 24 hours. The source says:
Cells were lysed in RIPA buffer and equal protein was loaded on SDS-PAGE gel followed by western blotting using p-AKT-Ser473, AKT, pRB-S780/811, RB, pP70S6K. β-actin served as loading control.

Data set [4] concerns Huh7 cells. The data set can be described thus: Huh7 tumor implantation in NGS mice, safety and efficacy. As to conditions: 30 mg/kg oral gavage, 5 times per week for 2 weeks.
Source text: 1×10^7 Huh7 cells were implanted into NGS mice. When tumors reached ˜100 mm^3 after 14 days of tumor implantation, animals were divided into four groups (n=8 per group).
The test system of the next data set is Huh7. The data set can be described thus: Hepatocellular carcinoma cell viability, AlamarBlue. In kind it is cell-based. As to conditions: Homo sapiens, Huh-7; 24 hours; read-out: Hepatocarcinoma Cell Line IC50 Values Huh7. As to the method:
as §4

The next data set relates to Hep3B. The data set is described as above. As to conditions: Homo sapiens, 24 hours, read-out: Hepatocarcinoma Cell Line IC50 Values Hep3B. In kind it is cell-based. As to the method: as §4
Another data set deals with HepG2. Described as above. Format: cell-based. As to conditions: Homo sapiens, 24 hours, read-out: Hepatocarcinoma Cell Line IC50 Values HepG2. The method, then:
as §4

The target of the next data set is PIM1 (Homo sapiens, UniProt P11309). The data set can be described thus: PIM1 inhibition. Format: biochemical.
In the next data set the target is T7, BRD4 binding domain 2 (Homo sapiens, UniProt O60885).
T7 construct: Reaction Biology Corp., Malvern, PA (contract assay service)
The data set can be described thus: Bromodomain protein inhibition (Reaction Biology Corp.). As to conditions: read-out: IC50 BRD4 binding domain 2. The method, then:
as §1
(§6) The compounds of the invention were characterized by their ability to inhibit the target proteins using third party vendors offering such services. PI3K-alpha, PI3K-gamma, and PI3K-delta inhibition activity was determined by Thermo Fisher Scientific-Biosciences Life Sciences Solutions, Madison, WI. […] ND=not done.

In another data set the target is T8, BRD4 binding domain 1 (Homo sapiens, UniProt O60885).
T8 construct: Reaction Biology Corp., Malvern, PA (contract assay service)
The description is as above. As to conditions: read-out: IC50 BRD4 binding domain 1. As to the method: as §1, §6

The target of the next data set is CDK6/Cyclin D1 (Homo sapiens, UniProt Q00534). As to conditions: Divakar et al., Leukemia 2016; cited from earlier work.
In the next data set the target is CDK4/Cyclin D1 (Homo sapiens, UniProt P11802). Conditions: Divakar et al., Leukemia 2016; cited from earlier work.
Chain of CDK4/Cyclin D1 (P11802 whole entry, species assumed): as the sequence (P11802 whole entry) above
Chain of CDK4/Cyclin D1 (P24385 whole entry partner, species assumed): as the sequence (P24385 whole entry partner) above
Where [5] appears, read: 10-point curve, grouped by potency.

Read-outs that look alike come from different tables or passages of the source. Some results are limits rather than exact numbers.

T1 sequence (Q00534 whole entry): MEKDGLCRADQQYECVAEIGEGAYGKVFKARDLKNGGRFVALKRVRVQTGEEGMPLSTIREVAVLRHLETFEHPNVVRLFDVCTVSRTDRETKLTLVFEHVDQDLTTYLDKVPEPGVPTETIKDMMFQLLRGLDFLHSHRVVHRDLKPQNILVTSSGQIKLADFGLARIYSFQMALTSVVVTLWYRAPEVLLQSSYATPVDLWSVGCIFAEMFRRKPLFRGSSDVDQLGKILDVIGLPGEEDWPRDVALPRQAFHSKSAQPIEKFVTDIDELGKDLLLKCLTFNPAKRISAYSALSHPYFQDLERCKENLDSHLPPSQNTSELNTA
T1 sequence (P24385 whole entry partner): as the sequence (P24385 whole entry partner) above

For `CN(C)C(=O)c1cc2cnc(Nc3ccc(-c4csc5c(=O)cc(N6CCOCC6)oc45)cc3)nc2n1C1CCCC1` [Compound 1, {1-Cyclopentyl-6-[p-(5-morpholino-7-oxo-4-oxa-1-thia-3-indenyl)phenylamino]-1,5,7-triaza-1H-inden-2-yl} (dimethylamino) formaldehyde], the IC50 at CDK6 was 3.26 nM; against CDK6 (setting [5]) it was less than 100 nM; at CDK4, less than 2.54 nM; on CDK4 (setting [5]), less than 100 nM; at DNA-PK, 21 nM; in the data set with CHLA-255 it was 385 nM. Moreover, the IC50 in the data set with SMS-KNCR was found to be 962 nM; in the data set with CHLA-136, 4500 nM; in the data set with Huh7 2H cell line, 495 nM; in the data set on Mino (Homo sapiens, MINO, 48 hours, read-out: Mantle Cell Line IC50 Values Mino) it was 583 nM; in the data set with Granta (48 hours, read-out: Mantle Cell Line IC50 Values Granta), 580 nM; with Jeko-1 (Homo sapiens, JeKo-1, 48 hours, read-out: Mantle Cell Line IC50 Values Jeko-1) it was 851 nM. The IC50 is 2 nM against CDK9; 500 nM against CDK2; 1000 to 5000 nM at PI3K-gamma; less than 100 nM on PI3K-delta; 550 nM in the data set with Huh7; 1100 nM in the data set with Hep3B. Further, the values for the IC50 in the data set with HepG2 and at PIM1 were 4200 nM and 35 nM, respectively. Moreover, the “times more potent than Palbociclib, Mino” value in the data set with Mino (ratio of IC50 values) is 82.1 times. Moreover, in the data set with Granta (ratio of IC50 values), the “times more potent than Palbociclib, Granta” value is listed as 17.7 times. For the same molecule, the “times more potent than Palbociclib, Jeko-1” value in the data set on Jeko-1 (ratio of IC50 values) stood at 8.7 times. This molecule also displayed a concentration at 24 h in data set [1] (24 hours) of 63 nM. Besides, the AUC(0-inf) in data set [1] (Hot Rod Formulation Kit #8) came to 3520 ng·h/mL. The Cmax in [1] (Hot Rod Formulation Kit #8) is 1400 nM. In addition, the Tmax in data set [1] (Hot Rod Formulation Kit #8) was 0.5 h. In data set [1] (Hot Rod Formulation Kit #8, read-out: T1/2 (half-life) (converted)), the half-life is 10.4 h. For the same molecule, in the data set with Huh7 cells [2], the “phosphorylation of CDK target RB (pRB), Western blot” value is reported as “blocks phosphorylation”. Also, the “phosphorylation of PI3K target AKT (p-AKT), Western blot” value in the data set on Huh7 cells [2] is recorded as “blocks phosphorylation”. The “cell viability compared with Palbociclib” value in [3] (Hepatocellular carcinoma, Neuroblastoma, Mantle Cell lymphoma cell lines (FIG. 8A-8C)) is reported as “performed substantially better than Palbociclib”. Besides, in data set [3] (hepatocellular carcinoma cells (FIG. 8D)), the “cell viability compared with combination BKM120, JQ1, Palbociclib” value is reported as “performed substantially better”. Further, the “PI3K-AKT signaling (p-AKT), Western blot” value with Mino and Granta cells was “inhibits”. Besides, the “cyclin D/RB signaling (phosphorylation of RB), Western blot” value with Mino and Granta cells is “inhibits”. The “in vivo anticancer efficacy (Huh7 tumors)” value in the data set with Huh7 cells [4] was “comparable to the efficacy of 3 separate cognate inhibitors”.

`CN1CCN(c2ccc(Nc3ncc4cc(C#N)c(=O)n(C5CCCC5)c4n3)cc2)CC1` [ON123300, reference compound]: the IC50 on BRD4 binding domain 2 is greater than 50000 nM; on BRD4 binding domain 1, 45600 nM; on CDK6/Cyclin D1 it was 9.82 nM; at CDK4/Cyclin D1, 3.87 nM.

The term IC50 denotes the point on the concentration scale where inhibition reaches its midpoint. In general, AUC(0-inf) refers to total exposure, with the tail of the curve extrapolated. A lower AUC(0-inf) goes with low exposure. What is called Cmax is the highest concentration seen after dosing. Usually Tmax stands for the time at which the peak concentration occurs.

Source of the values: patent US11760762B2, “Thienopyranones and furanopyranones as kinase, bromodomain, and checkpoint inhibitors” (SignalRx Pharmaceuticals, Inc., priority 2017, dated 2023).
